Measured values as given in the NIST ThermoML archive (doi:10.1016/j.jct.2016.09.022).
Numbers after ± are expanded uncertainties.

Tests used:
[1] = refractive index (Na D-line) (dimensionless); conditions: 298.15 K; 101.33 kPa; Liquid; Standard Abbe refractometry
[2] = Liquid; for speed of sound: Frequency=1.5 MHz, Single path-length method

CO [methanol]
Conditions	refractive index
[1]	1.3263 ± 0.0027

speed of sound [m/s], [2]
Conditions	283.15 K	293.15 K	303.15 K	313.15 K	323.15 K	333.15 K	343.15 K
100 kPa	1154.3 ± 2.3	1120.6 ± 2.3	1087.4 ± 2.2	1054.5 ± 2.1	1022 ± 2.1	989.77 ± 2	–
120 kPa	–	–	–	–	–	–	957.61 ± 1.9
5100 kPa	1182 ± 2.6	1149.2 ± 2.6	1118 ± 2.5	1087 ± 2.5	1055.8 ± 2.5	1025.2 ± 2.5	994.42 ± 2.5
10100 kPa	1209.3 ± 2.6	1176.2 ± 2.6	1146.4 ± 2.5	1116.8 ± 2.5	1087.2 ± 2.5	1058 ± 2.4	1028.6 ± 2.4
20100 kPa	1258.7 ± 2.7	1227.4 ± 2.6	1199.4 ± 2.6	1171.1 ± 2.6	1143.8 ± 2.5	1117.2 ± 2.5	1090.6 ± 2.5
30100 kPa	1303.6 ± 2.8	1274.2 ± 2.7	1248.1 ± 2.7	1221.5 ± 2.6	1195.3 ± 2.6	1169.8 ± 2.5	1144.9 ± 2.5
40100 kPa	1345.2 ± 2.8	1316.8 ± 2.8	1292.5 ± 2.7	1267.3 ± 2.7	1242.7 ± 2.6	1218.6 ± 2.6	1194.9 ± 2.6
50100 kPa	1384.4 ± 2.9	1357 ± 2.8	1333.7 ± 2.8	1309.7 ± 2.8	1286.3 ± 2.7	1263.6 ± 2.7	1241 ± 2.6
60100 kPa	1421 ± 2.9	1394.9 ± 2.9	1372.8 ± 2.9	1349.4 ± 2.8	1326.6 ± 2.8	1304.8 ± 2.7	1283.5 ± 2.7
70100 kPa	1456.2 ± 3	1430.8 ± 3	1409.7 ± 2.9	1387.1 ± 2.9	1365 ± 2.8	1343.6 ± 2.8	1323.1 ± 2.8
80100 kPa	1489.1 ± 3	1464.7 ± 3	1444.6 ± 3	1422.7 ± 2.9	1401.3 ± 2.9	1380.8 ± 2.9	1361.1 ± 2.8
90100 kPa	1520.7 ± 3.1	1496.7 ± 3.1	1477.7 ± 3	1456.3 ± 3	1435.9 ± 3	1415.9 ± 2.9	1396.8 ± 2.9
95100 kPa	1536 ± 3.1	1512.3 ± 3.1	1493.8 ± 3	1472.6 ± 3	1452.3 ± 3	1432.7 ± 3	1414 ± 2.9

Conditions	mass density [kg/m3]
[2], 298.15 K, 101.33 kPa, Vibrating tube method	786.5 ± 1.6
